Values quoted from earlier work, collected in US20060068010A1, “Method for improving the bioavailability of orally delivered therapeutics” (priority 2004, published 2006).
Where a name gives a salt, the structure may show the parent alone. Read-outs that look alike come from different tables or passages of the source.

What was measured:
[1] = normalized to glycine = 0, most hydrophobic = 100
[2] = humans

Row | SMILES | Hydrophobicity Index ([1]; At pH 2) | Hydrophobicity Index ([1]; At pH 7) | further results
1 | N[C@@H](CS)C(=O)O [Cys, cysteine] | 52 | 49 | 
2 | CC(C)NCC(O)COc1ccc(CC(N)=O)cc1 (stereo not drawn) [Atenolol, benzeneacetamide, 4-[2′-hydroxy-3′-[(1-methylethyl)amino]propoxy]-] |  |  | fraction of an oral dose absorbed from the gastrointestinal tract [2]: about 50%
3 | NCCCC[C@H](N)C(=O)O [Lys, lysine] | −37 | −23 | 
4 | CC(C)[C@H](N)C(=O)O [Val, valine] | 79 | 76 | 
5 | CC[C@H](C)[C@H](N)C(=O)O [Ile, isoleucine] | 100 | 99 | 
6 | CN(CCOc1ccc(CC2SC(=O)NC2=O)cc1)c1ccccn1.O=C(O)/C=C\C(=O)O (racemic) [Rosiglitazone maleate, (±)-5-[[4-[2-(methyl-2-pyridinylamino)ethoxy]phenyl]methyl]-2,4-thiazolidinedione, (Z)-2-butenedioate (1:1)] |  |  | solubility dependence on pH (physiological pH range): decreases with increased pH
7 | O=C(c1ccc(OCCN2CCCCC2)cc1)c1c(-c2ccc(O)cc2)sc2cc(O)ccc12 [raloxifene hydrochloride, 6-hydroxy-2-(4-hydroxyphenyl)-3-[4-(2-piperidinoethoxy)benzoyl]benzo[p]-thiophene] |  |  | solubility (hydrochloride-salt form): approximately 0.3 mg/mL; solubility classification (hydrochloride-salt form): very slightly soluble
8 | N[C@@H](Cc1ccccc1)C(=O)O [Phe, phenylalanine] | 92 | 100 | 
9 | CSCC[C@H](N)C(=O)O [Met, methionine] | 74 | 74 | 
10 | C[C@H](N)C(=O)O [Ala, Alanine] | 47 | 41 | 
11 | N[C@@H](Cc1c[nH]cn1)C(=O)O [His, histidine] | −42 | 8 | 
12 | NC(=O)C[C@H](N)C(=O)O [Asn, asparagine] | −41 | −28 | 
13 | N[C@@H](Cc1ccc(O)cc1)C(=O)O [Tyr, tyrosine] | 49 | 63 | 
14 | N[C@@H](Cc1c[nH]c2ccccc12)C(=O)O [Trp, tryptophan] | 84 | 97 | 
15 | Cc1nccn1CC1CCc2c(c3ccccc3n2C)C1=O (racemic) [ondansetron, (+/−) 1,2,3,9-tetrahydro-9-methyl-3-[2-methyl-1H-imidazol-1-yl]-4H-carbazol-4-one, monohydrochloride, dehydrate] |  |  | solubility classification (base form, at pH greater than 5.0): low solubility
